According to ChEMBL document CHEMBL1201862, “PubChem BioAssay data set” (2004):
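Following 48 hours of exposure in 96-well plates, responses at five concentrations were used to interpolate endpoints linearly. GI50 = concentration required for 50% inhibition of growth.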 The source made the active and inactive calls. No stated cut-off is given here; in the data, active = GI50 up to about 1.1 µM and inactive = higher.

Experiments:
Assay in all cases: growth of human tumour cells (NCI), 48 h
SK-MEL-5 = system: SK-MEL-5
MOLT-4 = system: MOLT-4
SF-295 = system: SF-295
RPMI-8226 = system: RPMI-8226
OVCAR-4 = system: OVCAR-4
HOP-62 = system: HOP-62
HOP-92 = system: HOP-92
SNB-75 = system: SNB-75
786-0 = system: 786-0
HCC 2998 = system: HCC 2998
NCI-H460 = system: NCI-H460
NCI-H522 = system: NCI-H522
COLO 205 = system: COLO 205
SK-OV-3 = system: SK-OV-3
UACC-62 = system: UACC-62
SW-620 = system: SW-620
NCI-H23 = system: NCI-H23
NCI-H226 = system: NCI-H226
DU-145 = system: DU-145

Measured: GI50

CC(C)N(C(=O)c1cccc(C(=O)N(C(C)C)C(C)C)c1)C(C)C
inactive: SK-MEL-5 > 100 µM | MOLT-4 > 100 µM | SF-295 > 100 µM | RPMI-8226 24.9 µM | OVCAR-4 > 100 µM | HOP-62 > 100 µM | HOP-92 > 100 µM | SNB-75 > 100 µM | 786-0 > 100 µM | HCC 2998 > 100 µM | NCI-H460 > 100 µM | NCI-H522 > 100 µM | COLO 205 > 100 µM | SK-OV-3 > 100 µM | UACC-62 > 100 µM | SW-620 12.8 µM | NCI-H23 > 100 µM | NCI-H226 > 100 µM

COC(=O)C1=C(C(=O)OC)C2(OC(C)=O)c3ccccc3-c3ccccc3C12 (stereo unspecified)
inactive: SK-MEL-5 14.1 µM | MOLT-4 1.96 µM | SF-295 17.9 µM | RPMI-8226 2.62 µM | OVCAR-4 2.47 µM | HOP-62 20 µM | HOP-92 1.77 µM | SNB-75 11.7 µM | 786-0 4.23 µM | HCC 2998 16.7 µM | NCI-H460 17 µM | NCI-H522 1.44 µM | COLO 205 1.63 µM | SK-OV-3 15.5 µM | UACC-62 11 µM | SW-620 1.66 µM | NCI-H23 11.5 µM | NCI-H226 16.5 µM

O=[N+]([O-])c1ccc(NC2OCC(O)C(O)C2O)cc1 (stereo unspecified)
inactive: SK-MEL-5 > 100 µM | MOLT-4 > 100 µM | SF-295 > 100 µM | RPMI-8226 > 100 µM | OVCAR-4 > 100 µM | HOP-62 > 100 µM | HOP-92 > 100 µM | SNB-75 > 100 µM | 786-0 > 100 µM | HCC 2998 > 100 µM | NCI-H460 > 100 µM | NCI-H522 > 100 µM | COLO 205 > 100 µM | SK-OV-3 > 100 µM | UACC-62 > 100 µM | SW-620 > 100 µM | NCI-H23 > 100 µM | NCI-H226 > 100 µM

CC(C)Cc1ccc(C(C)/C=C2\CCC(CN3CCCC3)C2=O)cc1 (stereo unspecified)
inactive: SK-MEL-5 14.8 µM | MOLT-4 2.67 µM | SF-295 16.9 µM | RPMI-8226 1.84 µM | OVCAR-4 13.3 µM | HOP-62 12.3 µM | HOP-92 19.1 µM | SNB-75 14.1 µM | 786-0 1.85 µM | HCC 2998 7.08 µM | NCI-H460 17.7 µM | NCI-H522 1.31 µM | COLO 205 4.5 µM | SK-OV-3 19.6 µM | UACC-62 15.7 µM | SW-620 7.18 µM | NCI-H23 11.5 µM | NCI-H226 18.1 µM

CNC(=O)OCc1c(CO)nc(SC)n1C
inactive: SK-MEL-5 > 100 µM | MOLT-4 > 100 µM | SF-295 > 100 µM | RPMI-8226 > 100 µM | OVCAR-4 > 100 µM | HOP-62 > 100 µM | HOP-92 > 100 µM | SNB-75 > 100 µM | HCC 2998 > 100 µM | NCI-H460 > 100 µM | NCI-H522 > 100 µM | COLO 205 > 100 µM | SK-OV-3 > 100 µM | UACC-62 > 100 µM | SW-620 > 100 µM | NCI-H23 > 100 µM | NCI-H226 > 100 µM

CCOC(=O)C1(C)CCC(C(C(=O)O)C(=O)O)CC1=O (stereo unspecified)
inactive: SK-MEL-5 > 100 µM | MOLT-4 > 100 µM | SF-295 > 100 µM | RPMI-8226 > 100 µM | OVCAR-4 > 100 µM | HOP-62 > 100 µM | HOP-92 > 100 µM | SNB-75 > 100 µM | 786-0 > 100 µM | HCC 2998 > 100 µM | NCI-H460 > 100 µM | NCI-H522 > 100 µM | COLO 205 > 100 µM | SK-OV-3 > 100 µM | UACC-62 > 100 µM | SW-620 > 100 µM | NCI-H226 > 100 µM

CC1=NN(c2nc(N)nc(CC#N)n2)C(C)(C)C1
inactive: SK-MEL-5 > 100 µM | MOLT-4 > 100 µM | SF-295 > 100 µM | RPMI-8226 > 100 µM | OVCAR-4 > 100 µM | HOP-62 > 100 µM | HOP-92 > 100 µM | SNB-75 > 100 µM | 786-0 > 100 µM | HCC 2998 > 100 µM | NCI-H460 > 100 µM | COLO 205 > 100 µM | DU-145 > 100 µM | SK-OV-3 > 100 µM | UACC-62 > 100 µM | SW-620 > 100 µM | NCI-H23 > 100 µM | NCI-H226 > 100 µM

CSC1(CC(=O)N(C)C)C(=O)Nc2ccccc21 (stereo unspecified)
inactive: SK-MEL-5 > 100 µM | MOLT-4 > 100 µM | SF-295 > 100 µM | RPMI-8226 > 100 µM | OVCAR-4 > 100 µM | HOP-62 > 100 µM | SNB-75 > 100 µM | 786-0 > 100 µM | HCC 2998 > 100 µM | NCI-H460 > 100 µM | COLO 205 > 100 µM | DU-145 > 100 µM | SK-OV-3 > 100 µM | UACC-62 > 100 µM | SW-620 > 100 µM | NCI-H23 > 100 µM | NCI-H226 > 100 µM
